Patent US11655216B2 (priority 2016, dated 2023)
Read-outs that look alike come from different tables or passages of the source.

Assays:
[1] = molecular target: T1, glutathione-S-transferase (GST) tagged LXRbeta LBD (ligand binding domain) (Homo sapiens, UniProt P55055); experiment: LanthaScreen TR-FRET Liver X Receptor Coactivator Assay, LXR beta; format: biochemical; conditions: for EC50: LXR beta IP, potency (Inflection Point), compound-induced co-activator recruitment, TR-FRET; for Emax: read-out: LXR beta actiivty at max dose, efficacy (% Emax) in relation to reference dual agonist T0901317; for LXR beta actiivty at max dose: efficacy (% Emax) in relation to reference dual agonist T0901317
T1 construct: purchased Invitrogen pv4658
T1 sequence (P55055 222-460 limits assumed): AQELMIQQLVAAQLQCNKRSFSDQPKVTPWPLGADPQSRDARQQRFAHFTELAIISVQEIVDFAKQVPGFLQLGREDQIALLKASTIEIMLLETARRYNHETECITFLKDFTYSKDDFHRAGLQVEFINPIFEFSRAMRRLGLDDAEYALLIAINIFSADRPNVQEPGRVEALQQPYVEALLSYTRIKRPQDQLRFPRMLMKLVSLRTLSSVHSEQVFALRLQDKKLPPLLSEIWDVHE
Method in brief: (§1)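 Compound + LBD (alpha or beta); add fluorescein coactivator peptide/Tb anti-GST Ab mix; incubate RT; read TR-FRET.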

[2] = molecular target: T2, glutathione-S-transferase (GST) tagged LXRalpha LBD (ligand binding domain) (Homo sapiens, UniProt Q13133); experiment: biochemical; conditions: for EC50 / LXR alpha IP: potency (Inflection Point), compound-induced co-activator recruitment, TR-FRET
T2 construct: purchased Invitrogen pv4655
T2 sequence (Q13133 209-447 limits assumed): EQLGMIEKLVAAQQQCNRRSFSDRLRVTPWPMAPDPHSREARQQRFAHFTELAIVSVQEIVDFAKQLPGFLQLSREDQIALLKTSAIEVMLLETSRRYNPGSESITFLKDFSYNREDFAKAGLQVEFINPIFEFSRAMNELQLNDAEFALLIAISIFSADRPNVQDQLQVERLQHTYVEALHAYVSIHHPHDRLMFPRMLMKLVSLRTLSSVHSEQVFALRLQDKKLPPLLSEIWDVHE
Method in brief: as §1

[3] = read-out: LXR alpha actiivty at max dose, efficacy (% Emax) in relation to reference dual agonist T0901317
[4] = efficacy (% Emax) in relation to reference dual agonist T0901317, read-out: LXR alpha actiivty at max dose
[5] = efficacy (% Emax) in relation to reference dual agonist T0901317

SMILES | EC50 [1] | Emax [1] | EC50 ([2]; LXR alpha IP) | Emax [2, 3] | LXR alpha IP [2] | Emax [2, 4] | EC50 ([2]; read-out: LXR alpha IP) | LXR beta actiivty at max dose [1] | LXR alpha actiivty at max dose [2, 5]
O=C(c1ccc(OCCCCC2CCN(C(=O)[C@](O)(c3ccccc3)C(F)(F)F)CC2)cc1Cl)N1CC[C@@H](O)C1 (single isomer, unassigned) [Example 8-3, (R or S)-1-(4-(4-(3-chloro-4-((R or S)-3-hydroxy-pyrrolidine-1-carbonyl)phenoxy)butyl)piperidin-1-yl)-3,3,3-trifluoro-2-hydroxy-2-phenylpropan-1-one] | 17 nM | 39% | 1010 nM | 26% | – | – | – | – | –
CN(C)C(=O)c1ccc(OCCC2CC23CCN(C(=O)C2(c4ccccc4)CCCN(C(=O)OC(C)(C)C)C2)CC3)cc1Cl (single isomer, unassigned) [Example 12-4, tert-butyl 3-((R or S)-1-(2-(3-chloro-4-(dimethylcarbamoyl)phenoxy)ethyl)-6-azaspiro[2.5]octane-6-carbonyl)-3-phenylpiperidine-1-carboxylate] | 182 nM | 22% | – | 0% | No IP | – | – | – | –
CC(C[C@H]1CC12CCN(C(=O)C1(c3ccccc3)CCC1)CC2)Oc1ccc(C(=O)N(C)C)c(Cl)c1 (single isomer, unassigned) [Example 13-1, 2-chloro-N,N-dimethyl-4-((S or R)-1-((R or S)-6-(1-phenylcyclobutanecarbonyl)-6-azaspiro[2.5]octan-1-yl)propan-2-yloxy)benzamide] | 87 nM | 110% | – | – | – | 25% | 762 nM | – | –
CC(C)C(O)(C(=O)N1CCC(C2CC2COc2ccc(C(=O)N(C)C)c(Cl)c2)CC1)C(F)(F)F (single isomer, unassigned) [Example 32-2, 2-chloro-4-(((1R,2S or 1S,2R)-2-(1-((R or S)-2-hydroxy-3-methyl-2-(trifluoromethyl)butanoyl)piperidin-4-yl)cyclopropyl)methoxy)-N,N-dimethylbenzamide] | 206 nM | – | – | – | No IP | – | – | 73% | 8%
O=C(c1ccc(OCCCCC2CCN(C(=O)[C@](O)(c3ccccc3)C(F)(F)F)CC2)cc1Cl)N1CCC[C@H]1CO (single isomer, unassigned) [Example 8-7, (R or S)-1-(4-(4-(3-chloro-4-((S or R)-2-(hydroxymethyl)pyrrolidine-1-carbonyl)phenoxy)butyl)piperidin-1-yl)-3,3,3-trifluoro-2-hydroxy-2-phenylpropan-1-one] | 7 nM | 48% | 131 nM | 42% | – | – | – | – | –
CN(C)C(=O)c1ccc(OCC[C@@H]2CC23CCN(C(=O)C(C)(c2ccccc2)C2CCC2)CC3)cc1Cl (single isomer, unassigned) [Example 12-14, 2-chloro-4-(2-((S or R)-6-((S or R)-2-cyclobutyl-2-phenylpropanoyl)-6-azaspiro[2.5]octan-1-yl)ethoxy)-N,N-dimethylbenzamide] | 22 nM | 74% | 343 nM | 20% | – | – | – | – | –
COc1cccc([C@@](O)(C(=O)N2CCC3(CC2)C[C@@H]3CCCOc2ccc(C(=O)N(C)C)c(Cl)c2)C(F)(F)F)c1 (single isomer, unassigned) [Example 14-6, 2-chloro-N,N-dimethyl-4-(3-((S or R)-6-((R or S)-3,3,3-trifluoro-2-hydroxy-2-(3-methoxyphenyl)propanoyl)-6-azaspiro[2.5]octan-1-yl)propoxy)benzamide] | 6 nM | 116% | 162 nM | 23% | – | – | – | – | –
CC(CCCOc1ccc(C(=O)N(C)C)c(Cl)c1)C1CCN(C(=O)C(O)(c2ccccc2)C(F)(F)F)CC1 (single isomer, unassigned) [Example 26-2, 2-chloro-N,N-dimethyl-4-((R or S)-4-(1-((R or S)-3,3,3-trifluoro-2-hydroxy-2-phenylpropanoyl)piperidin-4-yl)pentyloxy)benzamide] | 6 nM | – | 103 nM | 41% | – | – | – | 71% | –
O=C(c1ccc(OCCCCC2CCN(C(=O)C(O)(c3ccccc3)C(F)(F)F)CC2)cc1Cl)N1C[C@@H]2CC[C@H]1C2 (single isomer, unassigned) [Example 8-15, (R or S)-1-(4-(4-(4-((1S,4R)-2-azabicyclo[2.2.1]heptane-2-carbonyl)-3-chlorophenoxy)butyl)piperidin-1-yl)-3,3,3-trifluoro-2-hydroxy-2-phenylpropan-1-one] | 64 nM | 36% | 410 nM | 9% | – | – | – | – | –
CN(C)C(=O)c1ccc(O[C@H]2C[C@@H](CC3CCN(C(=O)[C@](O)(c4cccc(OC(F)F)c4)C(F)(F)F)CC3)C2)cc1Cl (single isomer, unassigned) [Example 37-9, 2-chloro-4-((1R,3s)-3-((1-((R or S)-2-(3-(difluoromethoxy)phenyl)-3,3,3-trifluoro-2-hydroxypropanoyl)piperidin-4-yl)methyl)cyclobutoxy)-N,N-dimethylbenzamide] | 16 nM | 111% | 1020 nM | 25% | – | – | – | – | –
CN(C)C(=O)c1ccc(OCCC2CC23CCN(S(=O)(=O)C(C)(C)c2ccccc2)CC3)cc1Cl (single isomer, unassigned) [Example 12-18, (S or R)-2-chloro-N,N-dimethyl-4-(2-(6-(2-phenylpropan-2-ylsulfonyl)-6-azaspiro[2.5]octan-1-yl)ethoxy)benzamide] | 80 nM | 26% | 1180 nM | 27% | – | – | – | – | –
CC(C)C(O)(C(=O)N1CCC(C2CC2COc2ccc(C(=O)N(C)C)c(Cl)c2)CC1)C(F)(F)F (single isomer, unassigned) [Example 32-1, 2-chloro-4-(((1R,2S or 1S,2R)-2-(1-((S or R)-2-hydroxy-3-methyl-2-(trifluoromethyl)butanoyl)piperidin-4-yl)cyclopropyl)methoxy)-N,N-dimethylbenzamide] | 319 nM | 82% | – | – | No IP | – | – | – | 0%
CNC(=O)c1ccc(OC[C@@H](C)CCC2CCN(C(=O)[C@@](O)(c3cccc(OC)c3)C(F)(F)F)CC2)cc1Cl (single isomer, unassigned) [Example 23-4, 2-chloro-N-methyl-4-((S or R)-2-methyl-4-(1-((S or trifluoro-2-hydroxy-2-(3-methoxyphenyl)propanoyl)piperidin-4-yl)butoxy)benzamide] | 60 nM | 53% | 717 nM | 9% | – | – | – | – | –
CN(C)C(=O)c1ccc(OCCCCC2CCN(C(=O)C(O)(c3cccc(OC(F)(F)F)c3)C(F)(F)F)CC2)cc1Cl (single isomer, unassigned) [Example 3-9, (R or S)-2-chloro-N,N-dimethyl-4-(4-(1-(3,3,3-trifluoro-2-hydroxy-2-(3-(trifluoromethoxy)phenyl)propanoyl)piperidin-4-yl)butoxy)benzamide] | 15 nM | 64% | 289 nM | 17% | – | – | – | – | –
COc1cccc(C(O)(C(=O)N2CCC(C(C)CCCOc3ccc(C(=O)N(C)C)c(Cl)c3)CC2)C(F)(F)F)c1 (single isomer, unassigned) [Example 26-1, 2-chloro-N,N-dimethyl-4-((R or S)-4-(1-((R or S)-3,3,3-trifluoro-2-hydroxy-2-(3-methoxyphenyl)propanoyl)piperidin-4-yl)pentyloxy)benzamide] | 8 nM | 65% | – | – | – | 12% | 236 nM | – | –
COc1cccc([C@](O)(C(=O)N2CCC(CCCC(C)Oc3ccc(C(=O)N(C)C)c(Cl)c3)CC2)C(F)(F)F)c1 (single isomer, unassigned) [Example 25-2, 2-chloro-N,N-dimethyl-4-((R or S)-5-(1-((S or R)-3,3,3-trifluoro-2-hydroxy-2-(3-methoxyphenyl)propanoyl)piperidin-4-yl)pentan-2-yloxy)benzamide] | 98 nM | 84% | 1360 nM | 12% | – | – | – | – | –
COc1ccccc1[C@@](O)(C(=O)N1CCC2(CC1)C[C@@H]2CCCOc1ccc(C(=O)N(C)C)c(Cl)c1)C(F)(F)F (single isomer, unassigned) [Example 14-5, 2-chloro-N,N-dimethyl-4-(3-((S or R)-6-((R or S)-3,3,3-trifluoro-2-hydroxy-2-(2-methoxyphenyl)propanoyl)-6-azaspiro[2.5]octan-1-yl)propoxy)benzamide] | 10 nM | 118% | 231 nM | 50% | – | – | – | – | –
